# Laboratory results taken from patent EP4417602A1, “SUBSTITUTED PYRAZOLE CARBOXAMIDES, SALTS THEREOF AND THEIR USE AS HERBICIDALLY ACTIVE SUBSTANCES” (Bayer AG, priority 2023, dated 2024).
# What was measured:
# [1] = tested on: ECHCG; experiment: A. Herbicidal pre-emergence action on harmful plants (Tables A); format: in vivo, Echinochloa crus-galli; conditions: visual grading after ca. 3 weeks vs untreated controls, 100% = plants have died off, 0% = as control plants
# From the text: (§1) Seeds of mono- and dicotyledonous weed plants were sown in plastic pots (double sowings with one species of mono- and one species of dicotyledonous weed plants per pot), in sandy loam, and covered with soil. The compounds according to the invention, formulated in the form of wettable powders (WP) or as emulsifiable concentrates (EC), were applied to the surface of the covering soil as aqueous suspension or emulsion, with the addition of 0.5% of an additive, at an application rate of 6001 of water per hectare (converted). Following treatment, the pots were placed in a greenhouse and kept under optimum growth conditions for the test plants. The visual grading of the damage to the test plants was carried out after ca. 3 weeks in comparison to untreated controls (herbicidal effect in percent (%): 100% effect = plants have died off, 0% effect = as control plants). Tables A1 to A12, below, show the effects of selected compounds of the general formula (I) according to table 1 on various harmful plants and an application rate corresponding to 1280 g/ha or below obtained by the experimental procedure mentioned above. Table A1: pre-emergence activity at 1280g/ha against ABUTH in %
# [2] = tested on: LOLRI; experiment: as above; format: in vivo, Lolium rigidum; conditions: visual grading after ca. 3 weeks vs untreated controls, 100% = plants have died off, 0% = as control plants
# From the text: as §1
# [3] = tested on: MATIN; experiment: as above; format: in vivo, Matricaria inodora; conditions: visual grading after ca. 3 weeks vs untreated controls, 100% = plants have died off, 0% = as control plants
# From the text: as §1
# [4] = tested on: SETVI; experiment: as above; format: in vivo, Setaria viridis; conditions: visual grading after ca. 3 weeks vs untreated controls, 100% = plants have died off, 0% = as control plants
# From the text: as §1
# [5] = tested on: STEME; experiment: as above; format: in vivo, Stellaria media; conditions: visual grading after ca. 3 weeks vs untreated controls, 100% = plants have died off, 0% = as control plants
# From the text: as §1
# [6] = tested on: POAAN; experiment: as above; format: in vivo, Poa annua
# From the text: as §1
# [7] = tested on: ALOMY; experiment: as above; format: in vivo, Alopecurus myosuroides; conditions: application rate 1280 g/ha; Table A9a
# From the text: as §1
# [8] = tested on: DIGSA; experiment: as above; format: in vivo, Digitaria sanguinalis
# From the text: as §1
# [9] = tested on: ECHCG; experiment: B. Herbicidal post-emergence action on harmful plants (Tables B); format: in vivo, Echinochloa crus-galli; conditions: application rate 1280 g/ha; Table B2a
# Description: (§2) Seeds of mono- and dicotyledonous weed plants were placed in plastic pots in sandy loam soil (doubly sown with in each case one species of mono- or dicotyledonous weed plants per pot), covered with soil and cultivated in a greenhouse under controlled growth conditions. 2 to 3 weeks after sowing, the test plants were treated at the one-leaf stage. The compounds of the invention, formulated in the form of wettable powders (WP) or as emulsion concentrates (EC), were applied onto the green parts of the plants as aqueous suspension or emulsion with addition of 0.5% additive at a water application rate of 600 liters per hectare (converted). After the test plants had been kept in the greenhouse under optimum growth conditions for about 3 weeks, the activity of the preparations was rated visually in comparison to untreated controls. For example, 100% activity = the plants have died, 0% activity = like control plants. Tables B1 to B12, below, show the effects of selected compounds of the general formula (I) according to table 1 on various harmful plants and an application rate corresponding to 1280 g/ha or below obtained by the experimental procedure mentioned above. Table B1a: post-emergence activity at 1280g/ha against ABUTH in %
# [10] = tested on: DIGSA; experiment: as above; format: in vivo, Digitaria sanguinalis; conditions: application rate 1280 g/ha; Table B12a
# Description: as §2
# [11] = tested on: AMARE; experiment: as above; format: in vivo, Amaranthus retroflexus; conditions: application rate 1280 g/ha; Table B8
# Description: as §2
# [12] = tested on: ABUTH; experiment: as above; format: in vivo, Abutilon theophrasti; conditions: application rate 1280 g/ha; Table B1a
# Description: as §2
# [13] = tested on: POAAN; experiment: as above; format: in vivo, Poa annua; conditions: application rate 1280 g/ha; Table B7a
# Description: as §2
# [14] = tested on: VERPE; experiment: as above; format: in vivo, Veronica persica; conditions: application rate 1280 g/ha; Table B11a
# Description: as §2
# [15] = tested on: STEME; experiment: as above; format: in vivo, Stellaria media; conditions: application rate 1280 g/ha; Table B6
# Description: as §2
# [16] = tested on: AMARE; experiment: A. Herbicidal pre-emergence action on harmful plants (Tables A); format: in vivo, Amaranthus retroflexus
# From the text: as §1
# [17] = application rate 80 g/ha, Table A7c
# [18] = application rate 320 g/ha, Table A7b
# [19] = application rate 1280 g/ha, visual grading after ca. 3 weeks vs untreated controls, 100% = plants have died off, 0% = as control plants
# [20] = application rate 320 g/ha, Table A12b
# [21] = application rate 1280 g/ha, Table A12a
Structure (SMILES),pre-emergence activity against ECHCG ([1]; application rate 1280 g/ha),pre-emergence activity against LOLRI ([2]; application rate 320 g/ha),pre-emergence activity against LOLRI ([2]; application rate 1280 g/ha),pre-emergence activity against MATIN ([3]; application rate 1280 g/ha),pre-emergence activity against SETVI ([4]; application rate 320 g/ha),pre-emergence activity against SETVI ([4]; application rate 1280 g/ha),pre-emergence activity against STEME ([5]; application rate 1280 g/ha),"pre-emergence activity against POAAN [6, 17]","pre-emergence activity against POAAN [6, 18]","pre-emergence activity against POAAN [6, 19]",pre-emergence activity against ALOMY [7],"pre-emergence activity against DIGSA [8, 20]","pre-emergence activity against DIGSA [8, 21]",post-emergence activity against AMARE [11],pre-emergence activity against ECHCG ([1]; application rate 320 g/ha),post-emergence activity against STEME [15],also measured
C=CCn1cc(C(=O)N2CCCC2Cc2ccccc2F)c(COC)n1 (racemic) [Example I-039],90%,90%,90%,90%,90%,90%,90%,90%,100%,100%,90%,90%,90%,,,,post-emergence activity against ECHCG [9]: 90%; post-emergence activity against DIGSA [10]: 90%
COCc1nn(CCC(OC)OC)cc1C(=O)N1CCCC1Cc1ccccc1F (racemic) [Example I-048],90%,,90%,,,,,,90%,100%,,,90%,90%,,,
COCc1nn(C)cc1C(=O)N1CCCC1Cc1ccccc1C (racemic) [Example I-078],100%,100%,100%,90%,90%,100%,90%,,100%,100%,90%,90%,90%,,90%,,pre-emergence activity against MATIN ([3]; application rate 320 g/ha): 90%; pre-emergence activity against STEME ([5]; application rate 80 g/ha): 90%; pre-emergence activity against STEME ([5]; application rate 320 g/ha): 90%; post-emergence activity against ABUTH [12]: 90%; post-emergence activity against ECHCG [9]: 90%; post-emergence activity against POAAN [13]: 90%; post-emergence activity against VERPE [14]: 90%
CCOCc1nn(C)cc1C(=O)N1CCC1Cc1ccccc1F (racemic) [Example I-105],100%,,90%,,,100%,,,,100%,,100%,100%,90%,90%,90%,post-emergence activity against POAAN [13]: 90%
CCOCc1nn(C)cc1C(=O)N1CCC1Cc1ccccc1Cl (racemic) [Example I-106],100%,,90%,,100%,100%,90%,,100%,100%,,90%,100%,90%,90%,,pre-emergence activity against ECHCG ([1]; application rate 80 g/ha): 90%; pre-emergence activity against SETVI ([4]; application rate 80 g/ha): 90%
Cn1cc(C(=O)N2CCC2Cc2c(F)cccc2Cl)c(COCC(F)F)n1 (racemic) [Example I-107],100%,,90%,100%,,100%,90%,,100%,100%,,90%,100%,90%,90%,90%,post-emergence activity against VERPE [14]: 90%
CCOCc1nn(C)cc1C(=O)N1CCC1Cc1c(F)cccc1Cl (racemic) [Example I-110],100%,90%,100%,90%,,100%,90%,,90%,100%,,90%,90%,100%,90%,,
COCc1nn(C)cc1C(=O)N1CCC1Cc1ccccc1Cl (racemic) [Example I-113],90%,,,90%,,,,,100%,100%,,,,90%,,,
"COCc1nn(C)cc1C(=O)N1CCCC1Cc1c(F)cccc1Cl (single isomer, unassigned) [Example I-087]",100%,100%,100%,90%,100%,100%,90%,100%,100%,100%,90%,100%,100%,90%,100%,90%,"pre-emergence activity against ECHCG ([1]; application rate 80 g/ha): 90%; pre-emergence activity against LOLRI ([2]; application rate 80 g/ha): 100%; pre-emergence activity against MATIN ([3]; application rate 320 g/ha): 90%; pre-emergence activity against SETVI ([4]; application rate 80 g/ha): 100%; pre-emergence activity against STEME ([5]; application rate 320 g/ha): 90%; pre-emergence activity against AMARE ([16]; application rate 320 g/ha, Table A8b): 90%; pre-emergence activity against AMARE [16, 19]: 90%; pre-emergence activity against DIGSA ([8]; application rate 80 g/ha, Table A12c): 90%"
"C=CCOCc1c(C(=O)N2CCCC2Cc2ccccc2F)cnn1C (single isomer, unassigned) [Example I-144]",100%,,,,,90%,90%,100%,100%,100%,,,90%,90%,90%,,
